Test results published in patent publication US20130065958A1, “METHODS FOR DISINFECTING OR STERILIZING ARTICLES” (priority 2011, published 2013).
Several values for one entry are separate records, joined by “and”; a condition that tells them apart may be missing. Identical values can stand only once. Like-named read-outs stand apart in the source and are kept apart here.

System: Bacillus atrophaeus ATCC 9372 spores
Conditions: 3 drops, overnight (15 hours) at 35 C
Protocol: Before sealing, the inside surface of the bottle cap (liner removed) or its foam liner had been inoculated with a 10 μL droplet of Bacillus atrophaeus ATCC 9372 spores dried down onto the cap or liner surface. Bacillus atrophaeus ATCC 9372 spores are known to be of relatively high resistance to peroxide disinfection and are a recommended (for example, the U.S. Pharmacopeia) resistant organism for disinfection studies using chemicals (such as peroxide or ethylene oxide) or dry heat.

Question: Which results are given for OO [3% hydrogen peroxide, hydrogen peroxide]?
Answer: CFU Recovered (inoculated on cap): 425000 CFU and 475000 CFU; Log Reduction (inoculated on cap): 1.2 and 1.1; CFU Recovered (inoculated on liner): 830000 CFU; Log Reduction (inoculated on liner): 0.4
